Assay results from ChEMBL document CHEMBL5346973 (J Med Chem, 2023).
pIC50: −log10 of the molar value. Where a SMILES comes first, the peptide text is derived from it.

What was measured:
[1] = target: Nicotinic acetylcholine receptor alpha9/alpha10 (Rattus norvegicus, UniProt P43144+Q9JLB5); assay: Antagonist activity at rat alpha9alpha10 nACh receptor expressed in Xenopus oocyte assessed as inhibition of acetylcholine-induced response at -70 mV holding potential by voltage-clamp based electrophysiological assay; assay type: cell-based
[2] = target: Neuronal acetylcholine receptor subunit alpha-7 (Rattus norvegicus, UniProt Q05941); assay: Antagonist activity at rat alpha7 nACh receptor expressed in Xenopus oocyte assessed as inhibition of acetylcholine-induced response at -70 mV holding potential by voltage-clamp based electrophysiological assay; assay type: cell-based
Neuronal acetylcholine receptor subunit alpha-7, sequence (Q05941 whole entry): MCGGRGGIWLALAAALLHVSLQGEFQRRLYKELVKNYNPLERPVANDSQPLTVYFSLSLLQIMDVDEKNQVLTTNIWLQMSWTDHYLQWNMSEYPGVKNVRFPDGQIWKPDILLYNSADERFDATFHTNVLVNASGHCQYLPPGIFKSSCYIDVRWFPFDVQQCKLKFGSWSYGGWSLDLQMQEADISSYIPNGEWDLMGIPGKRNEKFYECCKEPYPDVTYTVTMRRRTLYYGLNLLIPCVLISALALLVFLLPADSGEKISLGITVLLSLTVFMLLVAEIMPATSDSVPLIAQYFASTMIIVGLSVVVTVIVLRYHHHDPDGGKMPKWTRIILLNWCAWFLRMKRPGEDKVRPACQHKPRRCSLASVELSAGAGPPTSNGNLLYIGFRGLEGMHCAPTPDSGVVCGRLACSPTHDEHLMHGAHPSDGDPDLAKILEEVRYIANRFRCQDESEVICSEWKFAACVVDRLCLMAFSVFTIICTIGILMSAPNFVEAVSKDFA

Nicotinic acetylcholine receptor alpha9/alpha10, sequence (P43144 whole entry): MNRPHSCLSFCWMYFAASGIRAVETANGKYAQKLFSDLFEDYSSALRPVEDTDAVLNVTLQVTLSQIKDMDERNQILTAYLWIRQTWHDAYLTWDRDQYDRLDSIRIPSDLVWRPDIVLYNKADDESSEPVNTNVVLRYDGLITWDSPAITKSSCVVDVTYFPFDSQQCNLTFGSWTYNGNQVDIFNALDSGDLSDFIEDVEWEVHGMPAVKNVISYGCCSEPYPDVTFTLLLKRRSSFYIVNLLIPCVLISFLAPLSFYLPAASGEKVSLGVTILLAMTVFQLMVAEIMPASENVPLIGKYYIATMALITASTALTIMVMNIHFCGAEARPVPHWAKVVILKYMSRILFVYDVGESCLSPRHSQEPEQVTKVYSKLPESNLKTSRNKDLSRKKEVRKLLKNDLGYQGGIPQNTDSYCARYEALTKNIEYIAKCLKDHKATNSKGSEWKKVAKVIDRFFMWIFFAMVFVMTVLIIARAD
Nicotinic acetylcholine receptor alpha9/alpha10, sequence (Q9JLB5 whole entry): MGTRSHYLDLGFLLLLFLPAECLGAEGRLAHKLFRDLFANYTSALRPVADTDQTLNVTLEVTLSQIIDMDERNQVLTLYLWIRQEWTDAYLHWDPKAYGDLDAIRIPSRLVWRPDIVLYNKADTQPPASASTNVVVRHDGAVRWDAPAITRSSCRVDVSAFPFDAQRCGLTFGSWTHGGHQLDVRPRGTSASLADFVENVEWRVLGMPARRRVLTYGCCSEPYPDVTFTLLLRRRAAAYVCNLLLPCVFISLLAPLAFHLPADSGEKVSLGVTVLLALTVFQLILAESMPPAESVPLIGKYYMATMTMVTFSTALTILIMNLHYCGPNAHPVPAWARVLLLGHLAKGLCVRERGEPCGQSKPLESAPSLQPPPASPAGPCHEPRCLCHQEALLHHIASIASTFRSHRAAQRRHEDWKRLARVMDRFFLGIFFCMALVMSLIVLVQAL

SMILES	pIC50 [1]	pIC50 [2]
CC[C@H](C)[C@@H]1NC(=O)[C@H](CCCNC(=N)N)NC(=O)[C@H](CCCNC(=N)N)NC(=O)[C@@H](NC(=O)[C@H](Cc2ccc(O)cc2)NC(=O)[C@H](CCCNC(=N)N)NC(=O)[C@H](CCCNC(=N)N)NC(=O)[C@H](CCCNC(=N)N)NC(=O)[C@H](CCCNC(=N)N)NC(=O)[C@H](C)NC(=O)[C@H](Cc2ccc(O)cc2)NC(=O)[C@@H]2CCCN2C(=O)[C@H](CO)NC(=O)[C@H](CCCNC(=N)N)NC(=O)[C@@H]2CSSC[C@H](NC(=O)[C@@H](N)[C@@H](C)O)C(=O)N[C@@H](CCCNC(=N)N)C(=O)N[C@@H](CO)C(=O)N[C@@H](CO)C(=O)NCC(=O)N[C@@H](CCCNC(=N)N)C(=O)N[C@@H](Cc3ccc(O)cc3)C(=O)N2)CSSC[C@@H](C(=O)N[C@H](C(=O)O)C(C)C)NC(=O)[C@H](C)NC(=O)[C@H](CC(=O)O)NC(=O)[C@H]([C@@H](C)O)NC1=O (HELM PEPTIDE1{T.C.R.S.S.G.R.Y.C.R.S.P.Y.A.R.R.R.R.Y.C.R.R.I.T.D.A.C.V}$PEPTIDE1,PEPTIDE1,2:R3-9:R3|PEPTIDE1,PEPTIDE1,20:R3-27:R3$$$V2.0)	7.82	5.51
CC[C@H](C)[C@@H]1NC(=O)[C@H](CCCNC(=N)N)NC(=O)[C@H](CCCNC(=N)N)NC(=O)[C@@H](NC(=O)[C@H](Cc2ccc(O)cc2)NC(=O)[C@H](CCCNC(=N)N)NC(=O)[C@H](CCCNC(=N)N)NC(=O)[C@H](C)NC(=O)[C@H](CCCNC(=N)N)NC(=O)[C@H](CC(=O)O)NC(=O)[C@H](Cc2ccc(O)cc2)NC(=O)[C@@H]2CCCN2C(=O)[C@H](CO)NC(=O)[C@H](CCCNC(=N)N)NC(=O)[C@@H]2CSSC[C@H](NC(=O)[C@@H](N)[C@@H](C)O)C(=O)N[C@@H](CCCNC(=N)N)C(=O)N[C@@H](CO)C(=O)N[C@@H](CO)C(=O)NCC(=O)N[C@@H](CCCNC(=N)N)C(=O)N[C@@H](Cc3ccc(O)cc3)C(=O)N2)CSSC[C@@H](C(=O)N[C@H](C(=O)O)C(C)C)NC(=O)[C@H](C)NC(=O)[C@H](CC(=O)O)NC(=O)[C@H]([C@@H](C)O)NC1=O	7.74	5.42
CC[C@H](C)[C@@H]1NC(=O)[C@H](CCCNC(=N)N)NC(=O)[C@H](CCCNC(=N)N)NC(=O)[C@@H]2CSSC[C@H](NC(=O)[C@H](Cc3ccc(O)cc3)NC(=O)[C@H](CCCNC(=N)N)NC(=O)[C@H](C)NC(=O)[C@H](CO)NC(=O)[C@H](CO)NC(=O)[C@H](CCCNC(=N)N)NC(=O)[C@@H](NC(=O)[C@@H](N)[C@@H](C)O)CSSC[C@@H](C(=O)N[C@H](C(=O)O)C(C)C)NC(=O)[C@H](C)NC(=O)[C@H](CC(=O)O)NC(=O)[C@H]([C@@H](C)O)NC1=O)C(=O)N[C@@H](CCCNC(=N)N)C(=O)N[C@@H](CO)C(=O)N1CCC[C@H]1C(=O)N[C@@H](Cc1ccc(O)cc1)C(=O)N[C@@H](CC(=O)O)C(=O)N[C@@H](CCCNC(=N)N)C(=O)N[C@@H](CCCNC(=N)N)C(=O)N[C@@H](CCCNC(=N)N)C(=O)N[C@@H](CCCNC(=N)N)C(=O)N[C@@H](Cc1ccc(O)cc1)C(=O)N2 (HELM PEPTIDE1{T.C.R.S.S.A.R.Y.C.R.S.P.Y.D.R.R.R.R.Y.C.R.R.I.T.D.A.C.V}$PEPTIDE1,PEPTIDE1,2:R3-27:R3|PEPTIDE1,PEPTIDE1,9:R3-20:R3$$$V2.0)	7.77	5.24
CC[C@H](C)[C@@H]1NC(=O)[C@H](CCCNC(=N)N)NC(=O)[C@H](CCCNC(=N)N)NC(=O)[C@@H]2CSSC[C@H](NC(=O)[C@H](Cc3ccc(O)cc3)NC(=O)[C@H](CCCNC(=N)N)NC(=O)CNC(=O)[C@H](CO)NC(=O)[C@H](CO)NC(=O)[C@H](CCCNC(=N)N)NC(=O)[C@@H](NC(=O)[C@@H](N)[C@@H](C)O)CSSC[C@@H](C(=O)N[C@H](C(=O)O)C(C)C)NC(=O)[C@H](C)NC(=O)[C@H](CC(=O)O)NC(=O)[C@H]([C@@H](C)O)NC1=O)C(=O)N[C@@H](CCCNC(=N)N)C(=O)N[C@@H](CO)C(=O)N1CCC[C@H]1C(=O)N[C@@H](Cc1ccc(O)cc1)C(=O)N[C@@H](CC(=O)O)C(=O)N[C@@H](CCCNC(=N)N)C(=O)N[C@@H](CCCNC(=N)N)C(=O)N[C@@H](C)C(=O)N[C@@H](CCCNC(=N)N)C(=O)N[C@@H](Cc1ccc(O)cc1)C(=O)N2	7.24	< 5.00
